This note sets out measurements from patent US8329645B2, “Polymyxin derivatives and uses thereof” (priority 2008, dated 2012).

Data set [1] relates to Pseudomonas aeruginosa ATCC 27853. As to the kind of experiment: Growth inhibition around wells on LB agar plates. In kind it is cell-based. Conditions: Ps. aeruginosa ATCC 27853. The method, boiled down: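 Activity against Pseudomonas aeruginosa ATCC 27853 was assessed by agar well diffusion on LB plates. A suspension of about 10^8 cells/ml in 0.9% NaCl was spread over the agar and the excess removed. Once the surface had dried, 2 mm wells were drilled and filled with peptide dissolved in 0.9% NaCl. Plates were incubated 18 h at 37° C, and inhibition zone diameters were converted to areas in square mm.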

Data set [2] concerns E. coli ATCC25922. The method in brief: (§1)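 Strips carrying an antibiotic concentration gradient were placed on inoculated plates following the supplier's directions, and the MIC was then recorded.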
Data set [3] has as its system K. pneumoniae ATCC13883. The method, boiled down: as §1
A short description of data set [4]: Two-week intravenous toxicity study in young rats. The data set is classed as in vivo. Conditions: for lowest dose that negatively influenced the body weight gain: intravenously twice a day for two weeks. The method, then: Toxicity in young rats (weighing approx. 150 g in the beginning of the study) was determined by administering doses (1, 2, 4, 8, 16, and 32 mg/kg per day) of NAB7061 as well as the control compound polymyxin B intravenously twice (2) a day for two weeks. A group of ten (10) rats was studied for each dosage regimen. Clinical observations were made daily, the body weight measured twice weekly, and the food consumption twice weekly. In the end of week 2, all animals were sacrificed.
Histopathology of kidneys was performed for each animals and histopathology of all tissues was performed in three high-dose groups receiving NAB7061.

Another data set relates to E. coli strains. The data set is classed as cell-based, Escherichia coli. The method, then: Polymyxin B sulfate (Sigma-Aldrich, St. Louis, Mo., USA) was used as a control. […] Fourteen (14) strains (the F-strains) were purchased from Mobidiag Ltd., Helsinki, Finland. Besides bacteria, the MIC was also determined for the yeast Candida albicans (ATCC 28366 from ATCC). The inocula were prepared by adjusting the bacterial suspensions to a density equivalent to OD546 nm˜0.3 (˜10^8 CFU/ml˜0.5 McFarland) the yeast suspension to a density equivalent to OD546 nm˜0.75 (˜2×10^7 CFU/ml)._The suspensions were diluted to 10^7 CFU/ml. The plates were inoculated by using a Denley Multipoint Inoculator, 1 μl per spot corresponding to approx. 10^4 CFU/spot. Plates were incubated for 16-20 hours at 35° C. […] Both agents had good activity also against other polymyxin-susceptible strains of Enterobacteriaceae. […] S. aureus and C. albicans were resistant to the NAB peptides.

A short description of the next data set: in vivo. Conditions: male, Sprague-Dawley, rat, iv, 1 mg/kg.
Data set [5] concerns E. coli ATCC25922. As to the kind of experiment: Growth inhibition around wells on LB agar plates. In kind it is cell-based, Escherichia coli. As to the method: (§2) From an overnight-grown culture of IH3080 on LB agar, a suspension of approx. 10^8 cells/ml was prepared in 0.9% NaCl. Aliquots of this suspension were then pipetted on the agar plates and the plates were gently shaken to spread the suspension evenly on the entire surface of the plate. Thereafter, the unabsorbed part of the suspension was removed by using a Pasteur pipette. After the surface had dried, small wells (diameter, 2 mm) were drilled on the plates (five wells per plate) by using a sterile sharp-edged narrow metal tube, single-use pipette tip, and vacuum suction. An alternative method used a swab to spread the inoculum. Samples (4 μl and 10 μl) of the peptide solution in 0.9% NaCl (at concentrations of 1 μg/ml and 0.1 μg/ml) were then pipetted to the wells and the sample fluids were allowed to absorb. Controls included 0.9% NaCl solution without the compound to be tested. The plates were then incubated for 18 h at 37° C. whereafter the diameters of growth inhibition zones around each well were measured; the diameter of the well itself was not reduced. Finally, the diameters were converted to surface areas of growth inhibition (in square mm).
(§3) The susceptibility of eleven Gram-negative bacterial strains (nine different species) to NAB734 and polymyxin B was compared by using the susceptibility determination method described in Example 2. The strains included those belonging to the species of Serratia marcescens and Proteus mirabilis, both species generally known to be resistant to polymyxin. Furthermore, the susceptibility determination was also performed by using the Gram-positive bacterium, Staphylococcus aureus, also generally known to be polymyxin-resistant. Ten of the strains originated from ATCC (American Type Culture Collection, Manassas, Va., U.S.A.), and one from CCUG (Culture Collection of University of Gothenburg, Sweden). The source of E. coli IH3080 has been described in Example 2. Polymyxin B sulfate was from Sigma-Aldrich (St. Louis, Mo., USA).

Data set [6] deals with K. pneumoniae ATCC13883. Kind of data set: Growth inhibition around wells on LB agar plates. In kind it is cell-based, Klebsiella pneumoniae. The method, then:
as §2, §3

A further data set relates to K. pneumoniae CCUG45421. As to the kind of experiment: Growth inhibition around wells on LB agar plates. The data set is classed as cell-based, Klebsiella pneumoniae. As to the method:
as §2, §3

For the next data set, the system named is S. marcescens ATCC8100. Kind of data set: Growth inhibition around wells on LB agar plates. In kind it is cell-based, Serratia marcescens. As to the method: as §2, §3
The test system of another data set is E. coli IH3080. As to the kind of experiment: E-test MIC with or without NAB7061 (4 μg/ml), Mueller-Hinton agar. The data set is classed as cell-based, Escherichia coli. The method in brief: as §1

Where a SMILES comes first, the peptide text is derived from it. Bridges are numbered along the chain shown (N, C = ends). [ ]: non-standard residue; d: D form. The star is where a group is joined. Decanoyl = CCCCCCCCCC(=O)*; Octanoyl = CCCCCCCC(=O)*; Dab = NCC[C@H](N)C(=O)O; Abu = CC[C@H](N)C(=O)O

Experimental for in vivo: Four rats (Sprague-Dawley, male) were studied.
The samples were analyzed using liquid chromatography and mass spectrometry with electrospray ionization interface (LC/electrospray ionization MS).

Regarding `CCCCCCCC(=O)N[C@H](C(=O)N[C@@H](CC)C(=O)N[C@H]1CCNC(=O)[C@H]([C@@H](C)O)NC(=O)[C@H](CCN)NC(=O)[C@H](CCN)NC(=O)[C@H](CC(C)C)NC(=O)[C@@H](Cc2ccccc2)NC(=O)[C@H](CCN)NC1=O)[C@@H](C)O` [NAB 7061, OA-Thr-Abu-cy[Dab-Dab-DPhe-Leu-Dab-Dab-Thr-]] (Octanoyl-T[Abu][Dab][Dab][dF]L[Dab][Dab]T; lactam 3-C), the “growth inhibition around a well” value in [1] (4 μg) and in data set [1] (10 μg) was 0 square millimeters each time. Besides, the “MIC of NAB7061” value in the data set on E. coli ATCC25922 [2] (ATCC 25922) is 16 µg/mL; with K. pneumoniae ATCC13883 [3] (ATCC 13883), above 16 µg/mL. Further, in [4] (16 mg/kg per day, end of the study), the “rise of blood urea nitrogen (BUN) versus control or low dose group” value is recorded as “no such a rise was found”. Besides, in data set [4] (rats), the “lowest dose that negatively influenced the body weight gain” value is 8 mg/kg per day. Moreover, the “general pathology and histopathology of organs and kidneys” value in [4] (rats, two weeks) was “No NAB7061-related pathological findings were found”.
For the molecule `CCCCCCCC(=O)N[C@H](C(=O)N[C@H](CO)C(=O)N[C@H]1CCNC(=O)[C@H]([C@@H](C)O)NC(=O)[C@H](CCN)NC(=O)[C@H](CCN)NC(=O)[C@H](CC(C)C)NC(=O)[C@@H](Cc2ccccc2)NC(=O)[C@H](CCN)NC1=O)[C@@H](C)O` [NAB 739, OA-Thr-DSer-cy[Dab-Dab-DPhe-Leu-Dab-Dab-Thr-]] (Octanoyl-T[dS][Dab][Dab][dF]L[Dab][Dab]T; lactam 3-C), the “growth inhibition around a well” value in data set [1] (4 μg) was found to be 38 square millimeters. The “growth inhibition around a well” value in [1] (10 μg) came out at 79 square millimeters. Moreover, the “MIC values, range for E. coli strains” value with E. coli strains is 0.5 to 1 µg/mL. This molecule displayed a CL renal in the data set “in vivo” (plasma and urine) of 0.53 ± 0.3 mL/min/kg. In “in vivo” (plasma), this molecule gave a Vd of 0.222 ± 0.0205 L/kg, a clearance of 2.63 ± 0.54 mL/min/kg and a half-life of 1.15 ± 0.365 h. Further, the dose excreted in “in vivo” (urine) was 19.4 ± 7.38%.
With `CCCCCCCCCC(=O)N[C@H](C(=O)N[C@H](CO)C(=O)N[C@H]1CCNC(=O)[C@H]([C@@H](C)O)NC(=O)[C@H](CCN)NC(=O)[C@H](CCN)NC(=O)[C@H](CC(C)C)NC(=O)[C@@H](Cc2ccccc2)NC(=O)[C@H](CCN)NC1=O)[C@@H](C)O` [NAB 740, DA-Thr-DSer-cy[Dab-Dab-DPhe-Leu-Dab-Dab-Thr-]] (Decanoyl-T[dS][Dab][Dab][dF]L[Dab][Dab]T; lactam 3-C), the “growth inhibition around a well” value in [1] (4 μg) is given as 64 square millimeters; in data set [1] (10 μg) it was 133 square millimeters. For the same molecule, in the data set on E. coli strains, the “MIC values, range for E. coli strains” value was in the range of 1 to 2 µg/mL.
For Polymyxin B [reference compound], the “growth inhibition around a well” value in data set [1] (10 μg) amounted to 133 square millimeters; in the data set on E. coli ATCC25922 [5] (4 μg) it was 95 square millimeters; in the data set with E. coli ATCC25922 [5] (10 μg) it was 133 square millimeters; in the data set with K. pneumoniae ATCC13883 [6] (4 μg) it was 79 square millimeters; in the data set with K. pneumoniae ATCC13883 [6] (10 μg) it was 113 square millimeters; in the data set with K. pneumoniae CCUG45421 (4 μg) it was 95 square millimeters. In addition, the “growth inhibition around a well” value with K. pneumoniae CCUG45421 (10 μg) came out at 133 square millimeters; with S. marcescens ATCC8100 (4 μg), 0 square millimeters; with S. marcescens ATCC8100 (10 μg), 0 square millimeters. Moreover, the “Sensitization factor to antibiotic (MIC without / with 4 μg/ml of NAB 7061)” value in the data set on E. coli IH3080 is 2; in the data set on E. coli ATCC25922 [2] (E. coli ATCC25922), 5; in the data set with K. pneumoniae ATCC13883 [3] (K. pneumoniae ATCC13883) it was 1. Moreover, the “lowest dose that negatively influenced the body weight gain” value in data set [4] (rats) stood at 1 mg/kg per day.

As usually defined, the Vd is the apparent volume that relates the amount in the body to the concentration in plasma or blood. For orientation: clearance means a measure of how efficiently the substance is removed, as volume per time. A low value points to inefficient removal. Usually half-life stands for the time in which the quantity being followed falls by half. A high value points to slow decline.
